{
  "source": "patent US20060040312A1",
  "about": "(priority 1999, published 2006)",
  "key": {"[1]": {"system": "single tracheal, neuronal or myocyte cells", "assay_type": "cell-based, rat"}, "[2]": {"conditions": "rat, in vivo, iv"}, "[3]": {"biological_target": "Shaker H4 potassium channel (Drosophila melanogaster, UniProt P08510)", "sequence (P08510 whole entry)": "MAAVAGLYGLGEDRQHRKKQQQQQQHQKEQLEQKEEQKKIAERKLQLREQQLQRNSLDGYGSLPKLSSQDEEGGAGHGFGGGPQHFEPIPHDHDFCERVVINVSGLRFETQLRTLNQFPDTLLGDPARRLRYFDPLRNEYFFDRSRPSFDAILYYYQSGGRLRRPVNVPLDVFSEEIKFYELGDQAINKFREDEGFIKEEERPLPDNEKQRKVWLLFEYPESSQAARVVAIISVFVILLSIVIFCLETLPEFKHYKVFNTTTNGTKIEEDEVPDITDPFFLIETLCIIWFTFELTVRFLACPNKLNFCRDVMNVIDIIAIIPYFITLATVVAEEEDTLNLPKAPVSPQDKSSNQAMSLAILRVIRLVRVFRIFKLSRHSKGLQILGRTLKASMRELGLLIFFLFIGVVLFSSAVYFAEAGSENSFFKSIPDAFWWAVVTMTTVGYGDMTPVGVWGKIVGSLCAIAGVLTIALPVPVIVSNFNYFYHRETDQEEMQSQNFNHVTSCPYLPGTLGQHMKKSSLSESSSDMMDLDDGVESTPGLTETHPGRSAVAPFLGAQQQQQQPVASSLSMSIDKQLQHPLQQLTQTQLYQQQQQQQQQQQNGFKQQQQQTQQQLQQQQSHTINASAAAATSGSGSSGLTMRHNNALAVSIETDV", "conditions": "cited from earlier work"}, "[4]": {"system": "cardiac ventricular myocytes", "assay_type": "cell-based, rat"}, "[5]": {"system": "primary cultures of cortex"}, "[6]": {"system": "histamine-contracted, isolated Guinea pig tracheal segments"}, "Kv1.4": {"biological_target": "Kv1.4 (Homo sapiens, UniProt P22459)", "sequence (P22459 whole entry)": "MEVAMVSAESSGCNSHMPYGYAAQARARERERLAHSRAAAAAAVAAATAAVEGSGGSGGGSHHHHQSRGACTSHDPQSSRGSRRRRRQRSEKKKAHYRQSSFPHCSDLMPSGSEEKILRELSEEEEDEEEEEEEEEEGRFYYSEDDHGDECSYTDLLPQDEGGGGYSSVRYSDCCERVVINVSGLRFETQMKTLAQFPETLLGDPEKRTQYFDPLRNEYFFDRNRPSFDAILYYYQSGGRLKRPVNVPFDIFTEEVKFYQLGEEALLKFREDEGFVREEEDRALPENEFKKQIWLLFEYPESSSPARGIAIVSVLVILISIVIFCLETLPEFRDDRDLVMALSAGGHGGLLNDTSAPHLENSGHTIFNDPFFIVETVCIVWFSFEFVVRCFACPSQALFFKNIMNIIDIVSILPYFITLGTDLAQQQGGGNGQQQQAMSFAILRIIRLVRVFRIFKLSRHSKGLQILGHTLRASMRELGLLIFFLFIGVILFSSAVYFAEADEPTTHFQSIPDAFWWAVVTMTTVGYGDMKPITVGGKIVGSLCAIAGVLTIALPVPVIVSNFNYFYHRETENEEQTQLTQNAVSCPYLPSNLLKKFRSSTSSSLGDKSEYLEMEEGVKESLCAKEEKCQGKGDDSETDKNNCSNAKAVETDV", "conditions": "cited from earlier work"}, "cortex": {"system": "cortex", "assay_type": "cell-based, rat"}, "Kv1.1": {"biological_target": "T1, Kv1.1 (Homo sapiens, UniProt Q09470)", "T1 construct": "host or cells: oocytes", "conditions": "cited from earlier work"}, "[7]": {"system": "primary cultures of cortical neurons", "assay_type": "cell-based, rat"}, "cardiac myocytes": {"system": "cardiac myocytes", "assay_type": "cell-based, rat"}, "F425G Shaker mutation": {"biological_target": "F425G Shaker mutation (Drosophila melanogaster, UniProt P08510, F425G)", "sequence (P08510 whole entry F425G)": "as the sequence (P08510 whole entry) above, with F425G counted along it", "conditions": "cited from earlier work"}, "[8]": {"system": "primary cultures of cortex", "assay_type": "cell-based, rat"}, "[9]": {"system": "primary cultures of cortex", "assay_type": "cell-based, rat", "remark": "listed apart in the source"}, "Kv1.3": {"biological_target": "T2, Kv1.3 (Homo sapiens, UniProt P22001)", "T2 construct": "host or cells: oocytes", "T2 sequence (P22001 whole entry)": "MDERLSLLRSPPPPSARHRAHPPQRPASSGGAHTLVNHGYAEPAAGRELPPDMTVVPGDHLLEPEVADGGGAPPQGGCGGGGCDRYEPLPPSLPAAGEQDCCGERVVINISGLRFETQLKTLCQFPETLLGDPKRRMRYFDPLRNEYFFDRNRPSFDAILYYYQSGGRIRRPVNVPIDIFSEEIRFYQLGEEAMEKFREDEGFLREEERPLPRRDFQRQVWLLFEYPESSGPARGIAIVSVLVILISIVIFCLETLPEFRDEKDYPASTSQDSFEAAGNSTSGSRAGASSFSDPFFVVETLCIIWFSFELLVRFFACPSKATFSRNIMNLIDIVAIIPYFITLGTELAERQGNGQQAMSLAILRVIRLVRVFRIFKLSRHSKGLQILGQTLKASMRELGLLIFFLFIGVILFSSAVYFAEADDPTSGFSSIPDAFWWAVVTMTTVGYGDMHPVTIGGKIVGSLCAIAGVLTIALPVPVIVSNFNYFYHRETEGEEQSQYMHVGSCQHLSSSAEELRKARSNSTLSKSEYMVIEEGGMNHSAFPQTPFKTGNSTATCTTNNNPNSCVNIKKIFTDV", "conditions": "cited from earlier work"}, "[10]": {"system": "primary cultures of ventricular myocytes"}, "[11]": {"system": "primary cultures of ventricular myocytes", "assay_type": "cell-based, rat"}, "[12]": {"system": "primary cultures of cortex", "assay_type": "cell-based, rat", "remark": "listed apart in the source"}, "trachea": {"system": "trachea", "assay_type": "cell-based, rat"}, "[13]": {"system": "primary cortical cultures"}},
  "note": "“And” between values parts separate entries of the source, which are not always exact repeats. Identical values can stand only once. “Also recorded” adds a separate entry of the source. Positions of bridges follow the written chain, without caps; N, C: chain ends. Non-standard residues stand in square brackets, D forms with d. Residues, ends and D or L forms follow the SMILES beside them. Hyp = O=C(O)[C@@H]1C[C@@H](O)CN1",
  "data": [
    {"smiles": "CC[C@H](C)[C@@H]1NC(=O)[C@H](CCCNC(=N)N)NC(=O)[C@@H](N)CSSC[C@@H]2NC(=O)[C@@H]3CSSC[C@@H](C(=O)N[C@H](C(=O)O)C(C)C)NC(=O)[C@H](CCCCN)NC(=O)[C@H](CC(N)=O)NC(=O)[C@H](Cc4ccccc4)NC(=O)[C@H](CCCNC(=N)N)NC(=O)[C@H](CC(N)=O)NC(=O)[C@H](CSSC[C@H](NC(=O)[C@H](CCCCN)NC(=O)[C@H](CCC(N)=O)NC(=O)[C@H](CC(N)=O)NC(=O)[C@@H]4C[C@@H](O)CN4C1=O)C(=O)N[C@@H](Cc1ccccc1)C(=O)N[C@@H](CCC(N)=O)C(=O)N[C@@H](Cc1c[nH]cn1)C(=O)N[C@@H](CC(C)C)C(=O)N[C@@H](CC(=O)O)C(=O)N[C@@H](CC(=O)O)C(=O)N3)NC(=O)[C@H](CCCCN)NC(=O)[C@H](CCCNC(=N)N)NC(=O)[C@H](CO)NC2=O", "note": "[κ-PVIIA, kappa-conotoxin PVIIA] (H-CRI[Hyp]NQKCFQHLDDCCSRKCNRFNKCV-OH; disulfide 1-16, 8-20, 15-26)", "values": [
      {"measurement": "protection against hypoxia-induced changes in membrane potential (current-clamp)", "setting": "[1]", "value": "A similar result"},
      {"measurement": "effect on blood pressure", "setting": "[2]", "value": "no effect"},
      {"measurement": "effect on heart rate", "setting": "[2]", "value": "no effect"},
      {"measurement": "block / inhibition of the Shaker channel", "setting": "[3]", "value": "block"},
      {"measurement": "degree of glutamate-induced excitotoxicity", "setting": "cortical cells", "value": "effectively reduces the degree of glutamate-induced excitotoxicity in a dose-dependant manner"},
      {"measurement": "protection against delayed cytotoxic effects of glutamate", "setting": "cortical cells", "value": "very effective protection"},
      {"measurement": "protection against hypoxia-induced depolarization", "setting": "[4]", "value": "prevented any hypoxia-induced changes in membrane potential; also recorded: strong protective effect; also recorded: confers protection"},
      {"measurement": "EC50", "setting": "[5]", "value": 0.0008, "unit": "pM"},
      {"measurement": "relaxation of histamine-contracted tracheal segments", "setting": "[6]", "value": "able to relax"},
      {"measurement": "activity on Kv1.4", "setting": "Kv1.4", "value": "no detectable activity"},
      {"measurement": "protection against hypoxia (intracellular calcium, fluo-3)", "setting": "cortex", "value": "able to provide protection against hypoxia"},
      {"measurement": "activity on Kv1.1", "setting": "Kv1.1", "value": "no detectable activity; also recorded: no effects"},
      {"measurement": "change in intracellular calcium (Fluo-3 fluorescence)", "setting": "[7]", "value": "−2.15±0.95% and −8.8±3.9%"},
      {"measurement": "effect on intracellular calcium (Fluo-3)", "setting": "[7]", "value": "significant reduction"},
      {"measurement": "current corrected for cell capacitance", "setting": "cardiac myocytes", "value": "4.6±0.4", "unit": "pA/pf"},
      {"measurement": "current evoked", "setting": "cardiac myocytes", "value": "87.7±5.9", "unit": "pA"},
      {"measurement": "induction of currents", "setting": "cardiac myocytes", "value": "induces glibenclamide-sensitive currents"},
      {"measurement": "effect of F425G Shaker mutation on toxin affinity / sensitivity", "setting": "F425G Shaker mutation", "value": "abolishes"},
      {"measurement": "initial glutamate-induced depolarization (current-clamp)", "setting": "[8]", "value": "prevents the initial glutamate-induced depolarization"},
      {"measurement": "current corrected for cell capacitance", "setting": "[9]", "value": "2.4±0.7", "unit": "pA/pf"},
      {"measurement": "current evoked", "setting": "[9]", "value": "26.2±6.2", "unit": "pA"},
      {"measurement": "reversal potential of the evoked current", "setting": "[9]", "value": "~−20", "unit": "mV"},
      {"measurement": "effects on Kv1.3", "setting": "Kv1.3", "value": "no effects"},
      {"measurement": "EC50", "setting": "[10]", "value": 0.0009, "unit": "pM"},
      {"measurement": "protection against hypoxia (intracellular calcium, fluo-3)", "setting": "[11]", "value": "able to provide protection against hypoxia"},
      {"measurement": "change in intracellular K+ concentration (PBFI)", "setting": "[12]", "value": "reduction"},
      {"measurement": "protection against hypoxia (intracellular calcium, fluo-3)", "setting": "trachea", "value": "able to provide protection against hypoxia"},
      {"measurement": "protease activity (cytotoxicity)", "setting": "[13]", "value": "no detectable protease activity"}
    ]}
  ]
}
